Assay in all cases: NCI tumour cell line growth inhibition, 48 h
Assay [1] relates to TK-10 renal.
Assay [2] deals with NCI-H23 lung.
Assay [3] relates to CAKI-1 renal.
Assay [4] relates to SNB-78 CNS.
Assay [5] concerns DMS 114 small cell lung.
For assay [6], the system named is OVCAR-5 ovarian.
Assay [7] relates to SNB-75 CNS.
For assay [8], the system named is ACHN renal.
For assay [9], the system named is UACC-257 melanoma.
The subject of assay [10] is XF 498 CNS.
In assay [11] the test system is HS 578T breast.

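These data come from cells grown in 96-well plates and exposed to compound for 48 hours at five concentrations. GI50 marks 50% less growth. The concentration for full growth arrest is given as TGI.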

For `Nc1ncnc2c1ncn2CCCC(c1ccccc1)P(=O)(O)O` (stereo not drawn), the TGI in assay [1] is greater than 100 µM; in assay [2], greater than 100 µM; in assay [3], 30.7 µM; in [4] it was greater than 100 µM; in assay [5] it was greater than 100 µM; in assay [6] it was greater than 100 µM. The TGI in [7], in [8], in [9] and in assay [10] was greater than 100 µM throughout.
`Cc1c(-c2coc(-c3ccccc3)n2)c(=O)n(-c2ccccc2)n1C`: the TGI in assay [1], in assay [2], in [4], in assay [5], in [6] and in assay [7] was greater than 100 µM in each case. For the same molecule, the values for the TGI in [8], in [9] and in [10] were greater than 100 µM, greater than 100 µM and 81.7 µM, respectively.
In the case of `N#CNC(=NCc1ccccc1)NCCc1c[nH]c2ccccc12`, the TGI in assay [1], in assay [2], in assay [4], in [5], in assay [6] and in [7] was greater than 100 µM throughout. Moreover, the TGI in [8], in assay [9] and in assay [10] was greater than 100 µM throughout.
On to `CC(C)(C)c1ccc(O)c(C(c2ccc([N+](=O)[O-])cc2)c2cc(C(C)(C)C)ccc2O)c1`, for which the TGI turned out to be 7.39 µM in assay [1]; 4.23 µM in assay [2]; 2.88 µM in [3]; 3.25 µM in assay [6]; 3.9 µM in assay [7]; 3.3 µM in assay [8]. Moreover, the TGI amounted to 3.41 µM in assay [9] and 18.7 µM in [11].
Consider `COc1cc(N)c2[nH]c3c(C)ccc(C)c3c2c1`, for which the TGI in assay [1], in assay [3], in assay [4], in assay [5], in assay [6] and in [7] was greater than 100 µM in each case. In addition, the TGI in assay [8], in assay [9] and in assay [10] was greater than 100 µM in each case.
As to `Oc1cc(Cl)cc2cc(Cl)cnc12`, the TGI in assay [1] was 76.2 µM; in [2], 24.4 µM; in assay [3], 57.7 µM; in assay [6], greater than 100 µM; in assay [7], 94 µM; in assay [8] it was 21.3 µM. In addition, the TGI in assay [9] and in [11] was greater than 100 µM in each case.
As to `N/C(=N\S(=O)(=O)c1ccc(-c2ccccn2)s1)Nc1ccc(Cl)cc1`, the TGI in assay [1] was found to be 32.1 µM; in assay [2] it was 33.2 µM; in [3] it was 24.9 µM; in assay [6] it was 40.2 µM; in assay [7] it was 45.7 µM; in assay [8], 33.6 µM. The TGI in [9] was 21.1 µM; in [11], 59.6 µM.
`C=C1C(=O)[C@]23C[C@H]1C[C@@H](O)[C@H]2[C@]1(COC3=O)[C@@H](OC(C)=O)CC[C@@](C)(COC(C)=O)[C@H]1C=O`: the TGI in assay [1] was greater than 50 µM; in assay [2], greater than 50 µM; in [3] it was 18.8 µM; in [6] it was greater than 50 µM; in [7], greater than 50 µM; in assay [8] it was greater than 50 µM. Moreover, the TGI in assay [9] and in assay [11] was greater than 50 µM throughout.
As for `N#CCCN(CCC#N)c1ccc(/C=C2\SC(=S)NC2=O)cc1`, the TGI in assay [1] is greater than 100 µM; in assay [2] it was greater than 100 µM; in assay [3], 59.7 µM; in assay [6] it was greater than 100 µM; in [7], greater than 100 µM; in [8] it was greater than 100 µM. The TGI in assay [9] and in assay [11] was greater than 100 µM throughout.
In the case of `NC(=S)Nc1ccc2c(c1)oc1ccccc12`, the TGI in [1], in assay [2], in assay [3], in [6], in assay [7] and in [8] was greater than 100 µM each time. Besides, the TGI in assay [9] and in assay [11] was greater than 100 µM each time.
`COc1ccc(C(=O)c2c(-c3ccccc3NC(=O)C(F)(F)F)[nH]c3ccccc23)cc1`: the TGI amounted to 24.9 µM in assay [1]; 25.7 µM in [2]; 28.6 µM in assay [3]; 25.5 µM in [6]; 7.89 µM in assay [7]; 11.6 µM in assay [8]. Besides, the figures for the TGI in assay [9] and in assay [11] were 29.9 µM and 46.9 µM, respectively.
On to `Clc1ccc2nc3n[nH]c(Cl)c3nc2c1`, for which the TGI in assay [1], in assay [2], in assay [3], in assay [6], in assay [7] and in assay [8] was greater than 100 µM in each case. Also, the TGI in assay [9] was greater than 100 µM; in assay [11], 63.6 µM.
In the case of `O=C1C(C(c2ccc([N+](=O)[O-])cc2)N2CCOCC2)=C(O)C(c2ccccc2)N1c1ccccc1` (stereo not drawn), the TGI in [1], in [2], in assay [3], in [6], in [7] and in [8] was greater than 10 µM in each case. Besides, the TGI in assay [9] and in assay [11] was greater than 10 µM in each case.
`C/C(=N/NC(=S)Nc1cccc(Cl)c1)c1ccccn1`: the TGI in assay [1] came out at 10.4 µM; in [2], 9.97 µM; in assay [3] it was 11.8 µM; in assay [6], 3.46 µM; in assay [7] it was 11.7 µM; in [8] it was 8.13 µM. The TGI in assay [9] is 2.41 µM; in assay [11], 10.1 µM.
Regarding `Nc1ncnc2c1ncn2C1OC(CO)C(O)C1NS(=O)(=O)c1ccccc1` (stereo not drawn), the TGI in assay [1], in assay [2], in assay [3], in assay [6], in assay [7] and in assay [8] was greater than 100 µM in each case. Also, the TGI in assay [9] and in assay [11] was greater than 100 µM each time.
As to `O=C(NNS(=O)(=O)c1ccc(Br)cc1)c1ccc(Cl)cc1NC(=O)C12CC3CC(CC(C3)C1)C2`, the TGI was 33.2 µM in assay [1]; 28.2 µM in assay [2]; 56.6 µM in [3]; 34.3 µM in assay [6]; 28 µM in assay [7]; 29.7 µM in [8]. In addition, the TGI in [9] came to 26.9 µM; in assay [11], 40.7 µM.
On to `COC(=O)CCCC1(CCCC(=O)OC)CCCCCCCCC(CCCC(=O)OC)(CCCC(=O)OC)C(=O)C1=O`, for which the TGI in assay [1] was greater than 100 µM; in assay [2] it was 47.9 µM; in [3] it was 24.4 µM; in assay [6], greater than 100 µM; in [7] it was 88.7 µM; in assay [8], greater than 100 µM. Also, the TGI in assay [9] and in [11] was greater than 100 µM each time.
With `CC(C)NCC(O)c1ccc(O)c2ncccc12` (stereo not drawn), the TGI in [1] is greater than 100 µM; in assay [2] it was 78.7 µM; in assay [3], greater than 100 µM; in assay [6], greater than 100 µM; in assay [7], greater than 100 µM; in [8], greater than 100 µM. Also, the TGI in assay [9] and in [11] was greater than 100 µM throughout.
Regarding `C[C@]12C(=O)C=CCC1=CC[C@@H]1[C@@H]2[C@H]2CC3(O)C(=O)O[C@@]4(C)[C@H]5C[C@@]6(C)[C@@H]7[C@@]2(O)[C@]1(OC[C@H]6C(=O)O5)O[C@]734` (stereo partly drawn), the TGI was greater than 100 µM in assay [1]; 54.6 µM in assay [2]; greater than 100 µM in assay [3]; greater than 100 µM in [6]; greater than 100 µM in assay [7]; greater than 100 µM in assay [8]. The TGI in assay [9] and in assay [11] was greater than 100 µM throughout.
In the case of `NC(=O)COc1c(Br)cc(Br)cc1Br`, the TGI in assay [2], in assay [3], in assay [5], in [6], in assay [7] and in [8] was greater than 100 µM in each case. The TGI in assay [9] and in assay [10] was greater than 100 µM in each case.
Take `c1ccc(C(c2cccc3c2ccc2ccccc23)C(c2ccccc2)c2cccc3c2ccc2ccccc23)cc1` (stereo not drawn): the TGI in assay [1], in assay [2], in assay [3], in [6], in [7] and in assay [8] was greater than 100 µM throughout. In addition, the TGI in assay [9] and in assay [11] was greater than 100 µM throughout.
For `COC(=O)c1ccccc1NC(=S)NN(C)C`, the TGI in assay [1], in [2], in [3], in assay [6], in assay [7] and in assay [8] was greater than 100 µM in each case. Besides, the TGI in assay [9] and in assay [11] was greater than 100 µM in each case.
On to `O=C(N/N=C\c1cccs1)c1ccncc1`, for which the TGI in assay [1], in assay [2], in [3], in [6], in assay [7] and in [8] was greater than 100 µM each time. The TGI in assay [9] and in [11] was greater than 100 µM in each case.
With `O=S(c1ccccc1)C1CC2CC3(CCC21O)OCCO3` (stereo not drawn), the TGI in assay [1], in assay [2], in [3], in assay [6], in assay [7] and in assay [8] was greater than 100 µM each time. For the same molecule, the TGI in assay [9] and in assay [11] was greater than 100 µM throughout.
In the case of `CCCCC(=C=C(C)CO)C1CCCN1C(=O)OC(C)(C)C` (stereo not drawn), the TGI was 48.1 µM in assay [1]; 46.8 µM in [2]; 61.5 µM in assay [3]; 39.9 µM in [6]; 53.4 µM in [7]; 68.2 µM in assay [8]. Also, the values for the TGI in [9] and in [11] were 32.7 µM and 30.4 µM, respectively.
For `O=C(/C=C/c1ccc(OCc2ccccc2)cc1)NCc1ccc(C(=O)NCc2ccccc2)cc1`, the TGI in assay [1], in [2], in assay [3], in assay [6], in [7] and in assay [8] was greater than 100 µM in each case. Besides, the TGI in assay [9] and in assay [11] was greater than 100 µM in each case.
For `C=CCNc1nc(O)c(/C=C2\C=Nc3ncccc32)s1`, the GI50 is 2.18 µM in assay [1]; 1.93 µM in assay [2]; 2.22 µM in assay [3]; 2.66 µM in assay [6]; 1.51 µM in [7]; 2.21 µM in [8]. The GI50 in assay [9] was 9.12 µM; in assay [11], 2.03 µM. Besides, the TGI in assay [1] is 16.8 µM; in [2], 6.28 µM; in assay [3] it was greater than 100 µM; in [6], greater than 100 µM; in assay [7], 2.96 µM; in assay [8], greater than 100 µM. In addition, the TGI in assay [9] was determined as 21.2 µM; in assay [11], 9.66 µM.
`COc1cc(OCc2nc3cc(C(F)(F)F)ccc3nc2-c2ccccc2)cc(OC)c1OC`: the TGI in assay [1], in assay [2], in [3], in [6], in assay [7] and in assay [8] was greater than 100 µM each time. The TGI in assay [9] and in [11] was greater than 100 µM each time.
On to `CC(=O)NNc1nc(C)c(C(/C=C/c2ccc([N+](=O)[O-])cc2)=N/NC(N)=O)s1`, for which the TGI in assay [1], in [2], in assay [3], in [6], in [7] and in assay [8] was greater than 100 µM throughout. Besides, the TGI in assay [9] and in assay [11] was greater than 100 µM throughout.
`Nc1nc2c(c(-c3ccccc3Cl)n1)COC/C2=C\c1ccccc1Cl`: the TGI in assay [1] was found to be 31.9 µM; in assay [2], 34.8 µM; in assay [3] it was 31.9 µM; in assay [6], 31.7 µM; in assay [7], 35.3 µM; in [8], 32.3 µM. Also, the TGI in assay [9] is 34.7 µM; in assay [11] it was 51 µM.
